From the supplement of paper PMC10307832

Tests used:
Assay in all cases: relative viability (nuclei count vs DMSO), 5 days (fraction); higher = more cells survive
201T = system: 201T
In short: (§1)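 Lung cancer cell lines were pin-tool dosed in 1536-well plates on the day after seeding, with either a lone drug or a fixed anchor-drug dose plus five library-drug doses (not always all listed) in √10 steps. Nuclei were counted on 4× images after 5 days. Relative viability is the ratio of treated-well to vehicle-well nuclei counts, with each value a median of duplicate plates.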

A-427 = system: A-427
In short: as §1

BEN = system: BEN
In short: as §1

COR-L23 = system: COR-L23
In short: as §1

EKVX = system: EKVX
In short: as §1

HARA = system: HARA
In short: as §1

HCC-15 = system: HCC-15
In short: as §1

HCC-44 = system: HCC-44
In short: as §1

HCC-827 = system: HCC-827
In short: as §1

NCI-H1437 = system: NCI-H1437
In short: as §1

NCI-H1650 = system: NCI-H1650
In short: as §1

NCI-H1666 = system: NCI-H1666
In short: as §1

NCI-H1792 = system: NCI-H1792
In short: as §1

NCI-H1975 = system: NCI-H1975
In short: as §1

NCI-H2342 = system: NCI-H2342
In short: as §1

NCI-H23 = system: NCI-H23
In short: as §1

NCI-H358 = system: NCI-H358
In short: as §1

NCI-H441 = system: NCI-H441
In short: as §1

NCI-H596 = system: NCI-H596
In short: as §1

NCI-H650 = system: NCI-H650
In short: as §1

NCI-H838 = system: NCI-H838
In short: as §1

SK-MES-1 = system: SK-MES-1
In short: as §1

SW 900 = system: SW 900
In short: as §1

SMILES: CCN(CC)CCCCNc1ncc2cc(-c3cc(OC)cc(OC)c3)c(NC(=O)NC(C)(C)C)nc2n1 + N=C(N)NC(=N)NCCc1ccccc1 [Phenformin] (partner 250 µM)
- relative viability (201T; first compound 0.01 µM): 0.477
- relative viability (201T; first compound 0.03162 µM): 0.479
- relative viability (201T; first compound 0.1 µM): 0.51
- relative viability (201T; first compound 0.3162 µM): 0.47
- relative viability (201T; first compound 1 µM): 0.376
- relative viability (A-427; first compound 0.01 µM): 0.294
- relative viability (A-427; first compound 0.03162 µM): 0.273
- relative viability (A-427; first compound 0.1 µM): 0.289
- relative viability (A-427; first compound 0.3162 µM): 0.204
- relative viability (A-427; first compound 1 µM): 0.173
- relative viability (BEN; first compound 0.01 µM): 0.261
- relative viability (BEN; first compound 0.03162 µM): 0.236
- relative viability (BEN; first compound 0.1 µM): 0.278
- relative viability (BEN; first compound 0.3162 µM): 0.464
- relative viability (BEN; first compound 1 µM): 0.244
- relative viability (COR-L23; first compound 0.01 µM): 0.433
- relative viability (COR-L23; first compound 0.03162 µM): 0.444
- relative viability (COR-L23; first compound 0.1 µM): 0.511
- relative viability (COR-L23; first compound 0.3162 µM): 0.517
- relative viability (COR-L23; first compound 1 µM): 0.362
- relative viability (EKVX; first compound 0.01 µM): 0.223
- relative viability (EKVX; first compound 0.03162 µM): 0.227
- relative viability (EKVX; first compound 0.1 µM): 0.243
- relative viability (EKVX; first compound 0.3162 µM): 0.258
- relative viability (EKVX; first compound 1 µM): 0.248
- relative viability (HARA; first compound 0.01 µM): 0.49
- relative viability (HARA; first compound 0.03162 µM): 0.504
- relative viability (HARA; first compound 0.1 µM): 0.489
- relative viability (HARA; first compound 0.3162 µM): 0.395
- relative viability (HARA; first compound 1 µM): 0.364
- relative viability (HCC-15; first compound 0.01 µM): 0.466
- relative viability (HCC-15; first compound 0.03162 µM): 0.535
- relative viability (HCC-15; first compound 0.1 µM): 0.526
- relative viability (HCC-15; first compound 0.3162 µM): 0.484
- relative viability (HCC-15; first compound 1 µM): 0.424
- relative viability (HCC-44; first compound 0.01 µM): 0.189
- relative viability (HCC-44; first compound 0.03162 µM): 0.195
- relative viability (HCC-44; first compound 0.1 µM): 0.237
- relative viability (HCC-44; first compound 0.3162 µM): 0.234
- relative viability (HCC-44; first compound 1 µM): 0.22
- relative viability (HCC-827; first compound 0.01 µM): 0.437
- relative viability (HCC-827; first compound 0.03162 µM): 0.422
- relative viability (HCC-827; first compound 0.1 µM): 0.417
- relative viability (HCC-827; first compound 0.3162 µM): 0.467
- relative viability (HCC-827; first compound 1 µM): 0.426
- relative viability (NCI-H1437; first compound 0.01 µM): 0.29
- relative viability (NCI-H1437; first compound 0.03162 µM): 0.298
- relative viability (NCI-H1437; first compound 0.1 µM): 0.28
- relative viability (NCI-H1437; first compound 0.3162 µM): 0.362
- relative viability (NCI-H1437; first compound 1 µM): 0.257
- relative viability (NCI-H1650; first compound 0.01 µM): 0.456
- relative viability (NCI-H1650; first compound 0.03162 µM): 0.416
- relative viability (NCI-H1650; first compound 0.1 µM): 0.503
- relative viability (NCI-H1650; first compound 0.3162 µM): 0.319
- relative viability (NCI-H1650; first compound 1 µM): 0.232
- relative viability (NCI-H1666; first compound 0.01 µM): 0.582
- relative viability (NCI-H1666; first compound 0.03162 µM): 0.562
- relative viability (NCI-H1666; first compound 0.1 µM): 0.574
- relative viability (NCI-H1666; first compound 0.3162 µM): 0.644
- relative viability (NCI-H1666; first compound 1 µM): 0.507
- relative viability (NCI-H1792; first compound 0.01 µM): 0.363
- relative viability (NCI-H1792; first compound 0.03162 µM): 0.43
- relative viability (NCI-H1792; first compound 0.1 µM): 0.312
- relative viability (NCI-H1792; first compound 0.3162 µM): 0.232
- relative viability (NCI-H1792; first compound 1 µM): 0.168
- relative viability (NCI-H1975; first compound 0.01 µM): 0.429
- relative viability (NCI-H1975; first compound 0.03162 µM): 0.398
- relative viability (NCI-H1975; first compound 0.1 µM): 0.481
- relative viability (NCI-H1975; first compound 0.3162 µM): 0.408
- relative viability (NCI-H1975; first compound 1 µM): 0.401
- relative viability (NCI-H2342; first compound 0.01 µM): 0.578
- relative viability (NCI-H2342; first compound 0.03162 µM): 0.582
- relative viability (NCI-H2342; first compound 0.1 µM): 0.56
- relative viability (NCI-H2342; first compound 0.3162 µM): 0.664
- relative viability (NCI-H2342; first compound 1 µM): 0.648
- relative viability (NCI-H23; first compound 0.01 µM): 0.804
- relative viability (NCI-H23; first compound 0.03162 µM): 0.878
- relative viability (NCI-H23; first compound 0.1 µM): 0.791
- relative viability (NCI-H23; first compound 0.3162 µM): 0.879
- relative viability (NCI-H23; first compound 1 µM): 0.781
- relative viability (NCI-H358; first compound 0.01 µM): 0.358
- relative viability (NCI-H358; first compound 0.03162 µM): 0.302
- relative viability (NCI-H358; first compound 0.1 µM): 0.358
- relative viability (NCI-H358; first compound 0.3162 µM): 0.472
- relative viability (NCI-H358; first compound 1 µM): 0.331
- relative viability (NCI-H441; first compound 0.01 µM): 0.826
- relative viability (NCI-H441; first compound 0.03162 µM): 0.87
- relative viability (NCI-H441; first compound 0.1 µM): 1.02
- relative viability (NCI-H441; first compound 0.3162 µM): 0.835
- relative viability (NCI-H441; first compound 1 µM): 0.933
- relative viability (NCI-H596; first compound 0.01 µM): 0.66
- relative viability (NCI-H596; first compound 0.03162 µM): 0.727
- relative viability (NCI-H596; first compound 0.1 µM): 0.899
- relative viability (NCI-H596; first compound 0.3162 µM): 0.832
- relative viability (NCI-H596; first compound 1 µM): 0.621
- relative viability (NCI-H650; first compound 0.01 µM): 0.417
- relative viability (NCI-H650; first compound 0.03162 µM): 0.442
- relative viability (NCI-H650; first compound 0.1 µM): 0.449
- relative viability (NCI-H650; first compound 0.3162 µM): 0.47
- relative viability (NCI-H650; first compound 1 µM): 0.451
- relative viability (NCI-H838; first compound 0.01 µM): 0.498
- relative viability (NCI-H838; first compound 0.03162 µM): 0.562
- relative viability (NCI-H838; first compound 0.1 µM): 0.597
- relative viability (NCI-H838; first compound 0.3162 µM): 0.538
- relative viability (NCI-H838; first compound 1 µM): 0.291
- relative viability (SK-MES-1; first compound 0.01 µM): 0.706
- relative viability (SK-MES-1; first compound 0.03162 µM): 0.673
- relative viability (SK-MES-1; first compound 0.1 µM): 0.637
- relative viability (SK-MES-1; first compound 0.3162 µM): 0.641
- relative viability (SK-MES-1; first compound 1 µM): 0.483
- relative viability (SW 900; first compound 0.01 µM): 0.529
- relative viability (SW 900; first compound 0.03162 µM): 0.678
- relative viability (SW 900; first compound 0.3162 µM): 0.48
- relative viability (SW 900; first compound 1 µM): 0.364
